Experimental data as given in the supplement of paper PMC10307832.

Key:
Test in all cases: relative viability (nuclei count vs DMSO), 5 days (fraction); higher = more cells survive
[1] = compound: Cc1ccc2nc(NCCN)c3ncc(C)n3c2c1 + O=C(CCCCCCC(=O)Nc1ccccc1)NO [Vorinostat] (partner 1 µM)
In short: (§1)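 Relative viability divides the nuclei count in treated wells by that in vehicle wells. Lung cancer cell lines were seeded in 1536-well plates, dosed by pin tool the next day, and fixed and stained after 5 days in one step with final 0.05% Triton X-100, 1% formaldehyde and 1 ug/ml Hoechst. Dosing was a single drug or a fixed anchor-drug dose plus five library-drug doses (not always all listed) in √10 steps, and values are medians of duplicate plates imaged at 4×.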

Salubrinal + Dasatinib = compound: O=C(/C=C/c1ccccc1)NC(NC(=S)Nc1cccc2cccnc12)C(Cl)(Cl)Cl [Salubrinal] + Cc1nc(Nc2ncc(C(=O)Nc3c(C)cccc3Cl)s2)cc(N2CCN(CCO)CC2)n1 [Dasatinib] (partner 0.075 µM)
In short: as §1

Salubrinal + Decitabine = compound: O=C(/C=C/c1ccccc1)NC(NC(=S)Nc1cccc2cccnc12)C(Cl)(Cl)Cl [Salubrinal] + Nc1ncn([C@H]2C[C@H](O)[C@@H](CO)O2)c(=O)n1 [Decitabine] (partner 2 µM)
In short: as §1

Salubrinal + Vorinostat = compound: O=C(/C=C/c1ccccc1)NC(NC(=S)Nc1cccc2cccnc12)C(Cl)(Cl)Cl [Salubrinal] + O=C(CCCCCCC(=O)Nc1ccccc1)NO [Vorinostat] (partner 1 µM)
In short: as §1

Row | Cell Line | relative viability ([1]; first compound 0.04 µM) | relative viability ([1]; first compound 0.1265 µM) | relative viability ([1]; first compound 0.4 µM) | relative viability ([1]; first compound 1.265 µM) | relative viability ([1]; first compound 4 µM) | relative viability (Salubrinal + Dasatinib; first compound 0.08 µM) | relative viability (Salubrinal + Dasatinib; first compound 0.253 µM) | relative viability (Salubrinal + Dasatinib; first compound 0.8 µM) | relative viability (Salubrinal + Dasatinib; first compound 2.53 µM) | relative viability (Salubrinal + Dasatinib; first compound 8 µM) | relative viability (Salubrinal + Decitabine; first compound 0.08 µM) | relative viability (Salubrinal + Decitabine; first compound 0.253 µM) | relative viability (Salubrinal + Decitabine; first compound 0.8 µM) | relative viability (Salubrinal + Decitabine; first compound 2.53 µM) | relative viability (Salubrinal + Decitabine; first compound 8 µM) | relative viability (Salubrinal + Vorinostat; first compound 0.08 µM) | relative viability (Salubrinal + Vorinostat; first compound 0.253 µM) | relative viability (Salubrinal + Vorinostat; first compound 0.8 µM) | relative viability (Salubrinal + Vorinostat; first compound 2.53 µM) | relative viability (Salubrinal + Vorinostat; first compound 8 µM)
1 | 201T | 0.969 | 0.975 | 0.887 | 1.05 | 1.02 | 0.56 | 0.596 | 0.669 | 0.602 | 0.573 | 0.918 | 0.815 | 0.859 | 0.84 | 0.83 | 1.08 | 0.922 | 1.03 | 1.03 | 0.933
2 | A549 |  |  |  |  |  |  |  |  |  |  |  | 0.253 | 0.245 | 0.257 | 0.246 |  |  |  |  | 
3 | A-427 | 0.9 | 0.844 | 0.852 | 0.876 | 0.89 | 0.724 | 0.643 | 0.747 | 0.68 | 0.654 | 0.575 | 0.564 | 0.57 | 0.539 | 0.597 | 0.859 | 0.905 | 0.896 | 0.814 | 0.827
4 | ABC-1 | 1.32 | 1.12 | 1.39 | 0.989 | 0.836 | 0.54 | 0.508 | 0.633 | 0.634 | 0.554 | 1.42 | 0.915 | 1.14 | 1.01 | 1.13 | 1.14 | 0.947 | 0.971 | 1.34 | 1.11
5 | BEN | 0.544 | 0.579 | 0.505 | 0.636 | 0.555 | 0.34 | 0.406 | 0.397 | 0.313 | 0.308 | 0.711 | 0.726 | 0.865 | 0.741 | 0.766 | 0.52 | 0.543 | 0.645 | 0.507 | 0.571
6 | CAL-12T | 0.77 | 0.711 | 0.882 | 0.65 | 0.629 | 0.543 | 0.422 | 0.347 | 0.264 | 0.23 |  |  |  |  |  | 0.903 | 0.676 | 0.989 | 0.681 | 0.672
7 | COR-L23 | 0.511 | 0.46 | 0.417 | 0.374 | 0.375 | 0.522 | 0.496 | 0.645 | 0.53 | 0.453 | 0.408 | 0.395 | 0.451 | 0.473 | 0.386 | 0.471 | 0.419 | 0.534 | 0.323 | 0.356
8 | COR-L 105 | 0.658 | 1.13 | 0.845 | 0.911 | 0.768 | 0.365 | 0.325 | 0.345 | 0.317 | 0.319 | 0.807 | 0.693 | 0.655 | 0.712 | 0.534 | 1.08 | 0.816 | 0.843 | 0.797 | 0.747
9 | ChaGo-K-1 | 0.751 | 0.832 | 0.771 | 0.657 | 0.766 | 0.685 | 0.544 | 0.667 | 0.57 | 0.524 | 0.574 | 0.523 | 0.56 | 0.523 | 0.467 | 0.834 | 0.683 | 0.901 | 0.814 | 0.77
10 | EKVX | 0.835 | 0.676 | 0.603 | 0.752 | 0.737 | 0.635 | 0.538 | 0.552 | 0.469 | 0.426 | 0.367 | 0.366 | 0.482 | 0.286 | 0.331 | 0.769 | 0.606 | 0.863 | 0.668 | 0.665
11 | EMC-BAC-2 | 0.467 | 0.433 | 0.455 | 0.527 | 0.392 | 0.305 | 0.334 | 0.359 | 0.411 | 0.335 | 0.992 | 0.879 | 1.01 | 0.991 | 1.05 | 0.388 | 0.477 | 0.798 | 0.514 | 0.494
12 | EPLC-272H | 0.564 | 0.406 | 0.279 | 0.374 | 0.415 | 0.41 | 0.324 | 0.357 | 0.383 | 0.294 | 0.403 | 0.373 | 0.369 | 0.405 | 0.362 | 0.464 |  | 0.539 | 0.427 | 0.336
13 | H3255 | 0.831 | 0.832 | 0.629 | 0.706 | 0.653 | 0.291 | 0.366 | 0.459 | 0.35 | 0.356 | 0.703 | 0.649 | 0.774 | 0.591 | 0.558 | 0.671 | 0.81 | 0.945 | 0.765 | 0.76
14 | HARA | 0.473 | 0.648 | 0.422 | 0.499 | 0.426 | 0.341 | 0.29 | 0.282 | 0.265 | 0.263 | 0.402 | 0.498 | 0.601 | 0.517 | 0.605 | 0.617 | 0.631 | 0.597 | 0.478 | 0.475
15 | HCC-15 | 0.852 | 0.873 | 0.78 | 0.78 | 0.744 | 0.723 | 0.586 | 0.701 | 0.627 | 0.498 | 0.723 | 0.555 | 0.773 | 0.762 | 0.61 | 0.952 | 0.784 | 0.866 | 0.826 | 0.804
16 | HCC-44 | 0.981 | 1.05 | 1.09 | 1.08 | 1.11 |  |  |  |  |  | 0.955 | 0.969 | 0.935 | 0.934 | 0.919 | 1.04 | 1.1 | 1.13 | 1 | 1.04
17 | HCC-78 | 0.502 | 0.426 | 0.402 | 0.383 | 0.436 | 0.404 | 0.343 | 0.688 | 0.361 | 0.363 | 0.735 | 0.661 | 0.816 | 0.606 | 0.624 | 0.473 | 0.446 | 0.472 | 0.451 | 0.441
